By IC50 is commonly meant the concentration at which inhibition is half-maximal. Low values mean inhibition by little substance, high ones a need for much substance.

These results are taken from patent publication US9493444B2 (Merck Patent GmbH, priority 2012, dated 2016).

This assay concerns Wnt pathway (TCF-dependent transcription in HEK293 luciferase reporter cell line with ER-DSH construct). The experiment in a line: Cellular assay for Wnt pathway activity (luciferase reporter). The format is cell-based. Conditions: Homo sapiens; Wnt pathway inhibition, HEK293 luciferase reporter cells (ER-DSH, TCF promoter), 24 hours incubation, estrogen-induced. In short, it runs like this:
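Compounds (30 μM down to 1 nM) were incubated 24 h on cells induced for TCF-dependent transcription with estrogen. Luciferase activity was read by luminescence, normalized to untreated vehicle control, and fitted for IC50.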
Take `CC(=O)N(C)CCNc1cncc(Oc2ccc(-c3cccnc3)c(F)c2F)n1` [Compound 302, N-{2-[6-(2,3-Difluoro-4-pyridin-3-yl-phenoxy)-pyrazin-2-ylamino]-ethyl}-N-methyl-acetamide]: the IC50 fell in the range of 1000 to 10000 nM.
On to `O=C1[C@@H]2CC[C@@H](C2)N1CCCc1cncc(Oc2ccc(F)cc2)n1` [Compound 303, (1S,4R)-2-{3-[6-(4-Fluoro-phenoxy)-pyrazin-2-yl]-propyl}-2-aza-bicyclo[2.2.1]heptan-3-one], for which the IC50 fell in the range of 200 to 1000 nM.
`CC(=O)N(C)CCCc1cncc(Oc2ccc(F)cc2)c1` [Compound 304, N-{3-[5-(4-Fluoro-phenoxy)-pyridin-3-yl]-propyl}-N-methyl-acetamide] showed an IC50 of 200 to 1000 nM.
The compound `CC(=O)N(C)CCCc1cnc(N)c(Oc2ccc(F)cc2)c1` [Compound 306, N-{3-[6-Amino-5-(4-fluoro-phenoxy)-pyridin-3-yl]-propyl}-N-methyl-acetamide] came in with an IC50 of 1000 to 10000 nM.
For `O=C1CCCCN1CCNc1cncc(Oc2ccc(N3CCOCC3)cc2)n1` [Compound 307, 1-{2-[6-(4-Morpholin-4-yl-phenoxy)-pyrazin-2-ylamino]-ethyl}-piperidin-2-one], the IC50 was 200 to 1000 nM.
Then `CC(N)C(=O)N(C)CCN(C)c1cncc(Oc2ccc(F)cc2)n1` (stereo not drawn) [Compound 308, 2-Amino-N-(2-{[6-(4-fluoro-phenoxy)-pyrazin-2-yl]-methyl-amino}-ethyl)-N-methyl-propionamide], with 1000 to 10000 nM.
The compound `CC(=O)N(C)CCN(C)c1cncc(Oc2ccc(-c3ccc(CN)nc3)cc2)n1` [Compound 309] showed an IC50 below 200 nM.
`CC(=O)N(C)CCN(C)c1cncc(Oc2ccc(F)cc2)c1` [Compound 310, N-(2-{[5-(4-Fluoro-phenoxy)-pyridin-3-yl]-methyl-amino}-ethyl)-N-methyl-acetamide]: the IC50 lay in the range of 1000 to 10000 nM.
Then `CN(C=O)CCNc1cncc(Oc2ccc(-c3cccc(N4CCN(C)CC4)n3)cc2)n1` [Compound 311, N-Methyl-N-[2-(6-{4-[6-(4-methyl-piperazin-1-yl)-pyridin-2-yl]-phenoxy}-pyrazin-2-ylamino)-ethyl]-formamide], with 200 to 1000 nM; and `CC(=O)N(C)CCCc1cncc(Oc2ccc(-c3ccc(C)cn3)cc2)c1` [Compound 312, N-Methyl-N-(3-{5-[4-(5-methyl-pyridin-2-yl)-phenoxy]-pyridin-3-yl}-propyl)-acetamide], with 1000 to 10000 nM; and `CC(=O)N(C)CCN(C)c1cncc(Oc2ccc(-c3cnn(C)c3)cc2)n1` [Compound 313, N-Methyl-N-[2-(methyl-{6-[4-(1-methyl-1H-pyrazol-4-yl)-phenoxy]-pyrazin-2-yl}-amino)-ethyl]-acetamide], with below 200 nM.
Take `CC(=O)N(C)CCCc1cc(Oc2ccc(-c3cccc(N4CCN(C)CC4)n3)cc2)c[n+]([O-])c1` [Compound 314, N-Methyl-N-[3-(5-{4-[6-(4-methyl-piperazin-1-yl)-pyridin-2-yl]-phenoxy}-1-oxy-pyridin-3-yl)-propyl]-acetamide]: the IC50 was 1000 to 10000 nM.
For the compound `CC(=O)N(C)CCNc1cncc(Oc2ccc(F)cc2)c1` [Compound 315, N-{2-[5-(4-Fluoro-phenoxy)-pyridin-3-ylamino]-ethyl}-N-methyl-acetamide], the IC50 is at least 10000 nM.
Then `CC(=O)N(C)CCCc1cncc(Oc2ccc(-c3cccc(N4CCN(C)CC4)n3)cc2)c1` [Compound 316, N-Methyl-N-[3-(5-{4-[6-(4-methyl-piperazin-1-yl)-pyridin-2-yl]-phenoxy}-pyridin-3-yl)-propyl]-acetamide], with 1000 to 10000 nM.
`CC(=O)N(C)CCN(C)c1cncc(Oc2ccc3c(cnn3C)c2)n1` [Compound 317, N-Methyl-N-(2-{methyl-[6-(1-methyl-1H-indazol-5-yloxy)-pyrazin-2-yl]-amino}-ethyl)-acetamide] showed an IC50 below 200 nM.
The compound `CC(=O)N(C)CCCc1cncc(Oc2ccc(-c3ccc(N4CCOCC4)nc3)cc2)c1` [Compound 318, N-Methyl-N-(3-{5-[4-(6-morpholin-4-yl-pyridin-3-yl)-phenoxy]-pyridin-3-yl}-propyl)-acetamide] yielded a 50% inhibitory concentration (IC50) of 200 to 1000 nM.
Compound `CC(=O)N(C)CCNc1cncc(Cc2ccccc2)n1` [Compound 319, N-[2-(6-Benzyl-pyrazin-2-ylamino)-ethyl]-N-methyl-acetamide] gave an IC50 of 200 to 1000 nM.
Then `CC(=O)N(C)CCN(C)c1cncc(Oc2ccc(-c3ccc(C)cn3)cc2)c1` [Compound 320, N-Methyl-N-[2-(methyl-{5-[4-(5-methyl-pyridin-2-yl)-phenoxy]-pyridin-3-yl}-amino)-ethyl]-acetamide], with 200 to 1000 nM; and `CC(=O)N(C)CCCc1cncc(Oc2ccc(-c3ccncc3C#N)cc2)c1` [Compound 321, N-(3-{5-[4-(3-Cyano-pyridin-4-yl)-phenoxy]-pyridin-3-yl}-propyl)-N-methyl-acetamide], with below 200 nM.
Turning to `CC(=O)N(C)CCNc1cncc(Cc2ccc(F)cc2)n1` [Compound 322, N-{2-[6-(4-Fluoro-benzyl)-pyrazin-2-ylamino]-ethyl}-N-methyl-acetamide], the IC50 lay within 1000 to 10000 nM.
The figure for `CC(=O)N(C)CCCc1cncc(Oc2ccc(-c3cnc(N)cn3)cc2)c1` [Compound 323, N-(3-{5-[4-(5-Amino-pyrazin-2-yl)-phenoxy]-pyridin-3-yl}-propyl)-N-methyl-acetamide] is 200 to 1000 nM.
